Tests used:
Format in all cases: biochemical
Conditions in all cases: Table 13, A compounds; 1 μM ATP
ITK = target: T1, ITK (Homo sapiens, UniProt Q08881); experiment: Inhibition of a panel of kinases, in vitro HotSpot kinase assay: ITK
T1 sequence (Q08881 1-620): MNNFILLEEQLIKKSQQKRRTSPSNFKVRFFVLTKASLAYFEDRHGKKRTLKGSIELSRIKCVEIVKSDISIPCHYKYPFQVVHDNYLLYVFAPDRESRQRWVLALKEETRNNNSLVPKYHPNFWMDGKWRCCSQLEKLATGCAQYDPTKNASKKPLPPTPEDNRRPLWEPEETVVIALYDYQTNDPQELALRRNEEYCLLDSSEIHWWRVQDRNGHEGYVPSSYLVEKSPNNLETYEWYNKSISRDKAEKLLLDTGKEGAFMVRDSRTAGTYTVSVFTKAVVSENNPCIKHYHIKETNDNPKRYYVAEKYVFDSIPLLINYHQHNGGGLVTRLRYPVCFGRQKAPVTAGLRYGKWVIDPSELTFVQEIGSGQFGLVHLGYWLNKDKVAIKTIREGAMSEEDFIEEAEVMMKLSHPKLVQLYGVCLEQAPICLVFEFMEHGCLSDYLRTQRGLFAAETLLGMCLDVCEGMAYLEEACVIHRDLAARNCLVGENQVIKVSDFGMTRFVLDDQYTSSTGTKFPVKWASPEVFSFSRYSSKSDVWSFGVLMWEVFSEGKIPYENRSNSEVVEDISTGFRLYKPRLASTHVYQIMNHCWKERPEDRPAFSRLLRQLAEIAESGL
Protocol: (§1) The degree of inhibition of a panel of kinases is determined using the in vitro HotSpot kinase assay (purified enzymes, ^33P-ATP, an appropriate substrate and 1 μM ATP).

SRC = SRC (Homo sapiens, UniProt P12931); experiment: Inhibition of a panel of kinases, in vitro HotSpot kinase assay: SRC
Sequence of SRC (P12931 whole entry): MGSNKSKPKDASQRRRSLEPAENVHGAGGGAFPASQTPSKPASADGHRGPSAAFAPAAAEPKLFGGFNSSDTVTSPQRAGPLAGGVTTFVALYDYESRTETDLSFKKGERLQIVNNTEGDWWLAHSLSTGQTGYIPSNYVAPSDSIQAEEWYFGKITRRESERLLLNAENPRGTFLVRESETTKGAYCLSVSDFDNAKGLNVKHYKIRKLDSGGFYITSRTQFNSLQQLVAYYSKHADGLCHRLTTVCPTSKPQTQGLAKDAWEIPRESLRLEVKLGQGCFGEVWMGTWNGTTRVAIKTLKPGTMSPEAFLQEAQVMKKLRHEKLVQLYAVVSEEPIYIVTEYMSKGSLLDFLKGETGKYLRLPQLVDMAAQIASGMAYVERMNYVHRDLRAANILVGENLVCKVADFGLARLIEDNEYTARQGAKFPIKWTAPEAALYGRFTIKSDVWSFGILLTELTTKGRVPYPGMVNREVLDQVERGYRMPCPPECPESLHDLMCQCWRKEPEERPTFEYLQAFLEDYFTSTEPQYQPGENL
Protocol: as §1

EGFR = EGFR (Homo sapiens, UniProt P00533); experiment: Inhibition of a panel of kinases, in vitro HotSpot kinase assay: EGFR
Sequence of EGFR (P00533 25-1210): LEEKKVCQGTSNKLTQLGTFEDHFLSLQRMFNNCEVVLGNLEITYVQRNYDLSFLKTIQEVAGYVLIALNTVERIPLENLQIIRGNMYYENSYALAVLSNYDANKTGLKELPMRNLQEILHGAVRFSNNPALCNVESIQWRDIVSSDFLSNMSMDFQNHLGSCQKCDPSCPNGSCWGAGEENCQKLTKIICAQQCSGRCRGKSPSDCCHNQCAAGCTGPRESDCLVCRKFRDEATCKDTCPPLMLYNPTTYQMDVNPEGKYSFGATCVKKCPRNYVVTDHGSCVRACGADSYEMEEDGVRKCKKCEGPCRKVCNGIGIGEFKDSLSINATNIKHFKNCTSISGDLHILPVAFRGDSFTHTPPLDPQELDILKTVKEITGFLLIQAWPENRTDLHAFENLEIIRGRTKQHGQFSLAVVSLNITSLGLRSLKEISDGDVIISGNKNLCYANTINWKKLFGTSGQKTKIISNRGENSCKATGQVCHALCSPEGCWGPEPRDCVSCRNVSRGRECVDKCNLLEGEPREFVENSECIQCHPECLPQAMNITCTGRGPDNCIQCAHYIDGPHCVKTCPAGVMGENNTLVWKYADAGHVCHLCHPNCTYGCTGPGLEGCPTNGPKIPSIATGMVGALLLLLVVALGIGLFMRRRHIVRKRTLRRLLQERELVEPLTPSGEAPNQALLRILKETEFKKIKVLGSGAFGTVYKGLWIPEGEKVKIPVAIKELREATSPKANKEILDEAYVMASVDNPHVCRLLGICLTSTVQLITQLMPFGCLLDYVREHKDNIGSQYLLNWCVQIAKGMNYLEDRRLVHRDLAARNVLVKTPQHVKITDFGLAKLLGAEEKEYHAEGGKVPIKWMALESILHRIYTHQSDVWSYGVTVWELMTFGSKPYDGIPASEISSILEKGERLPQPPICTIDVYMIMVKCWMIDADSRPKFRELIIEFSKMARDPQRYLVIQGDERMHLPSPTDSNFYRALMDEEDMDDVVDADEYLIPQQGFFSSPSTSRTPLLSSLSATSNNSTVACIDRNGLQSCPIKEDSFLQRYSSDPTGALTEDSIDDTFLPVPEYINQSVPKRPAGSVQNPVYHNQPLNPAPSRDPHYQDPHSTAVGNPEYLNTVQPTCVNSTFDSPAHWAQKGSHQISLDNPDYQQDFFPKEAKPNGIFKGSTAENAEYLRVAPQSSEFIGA
Protocol: as §1

TEC = target: T2, TEC (Homo sapiens, UniProt P42680); experiment: Inhibition of a panel of kinases, in vitro HotSpot kinase assay: TEC
T2 sequence (P42680 1-631): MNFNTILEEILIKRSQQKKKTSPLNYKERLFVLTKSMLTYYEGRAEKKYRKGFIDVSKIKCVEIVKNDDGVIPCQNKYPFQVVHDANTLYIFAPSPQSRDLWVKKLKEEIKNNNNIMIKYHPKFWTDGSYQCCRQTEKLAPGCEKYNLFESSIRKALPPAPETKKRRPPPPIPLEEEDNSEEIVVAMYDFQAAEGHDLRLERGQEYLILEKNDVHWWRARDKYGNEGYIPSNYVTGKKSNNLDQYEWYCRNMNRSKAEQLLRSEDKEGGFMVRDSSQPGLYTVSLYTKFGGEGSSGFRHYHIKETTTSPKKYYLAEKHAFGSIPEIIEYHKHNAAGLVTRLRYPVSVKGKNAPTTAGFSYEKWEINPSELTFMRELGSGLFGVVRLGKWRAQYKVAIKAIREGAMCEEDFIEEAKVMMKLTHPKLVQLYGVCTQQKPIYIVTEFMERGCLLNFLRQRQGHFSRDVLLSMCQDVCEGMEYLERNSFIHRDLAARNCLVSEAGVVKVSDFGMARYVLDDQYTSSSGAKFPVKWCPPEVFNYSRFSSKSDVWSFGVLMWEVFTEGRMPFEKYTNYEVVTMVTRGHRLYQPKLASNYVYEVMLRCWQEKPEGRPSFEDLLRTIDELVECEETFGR
Protocol: as §1

SMILES | IC50 (ITK) | IC50 (SRC) | IC50 (EGFR) | IC50 (TEC)
C[C@@H]1[C@H](NC(=O)c2ccc(C3CC3)cc2F)CCCN1c1cnc(C(N)=O)c(Nc2cc(CN3CCOCC3)ns2)n1 [Example A-128, 5-[(2R,3R)-3-(4-cyclopropyl-2-fluorobenzamido)-2-methylpiperidin-1-yl]-3-{[3-(morpholin-4-ylmethyl)-1,2-thiazol-5-yl]amino}pyrazine-2-carboxamide] | 100 to 1000 nM | 10 to 100 nM | 100 to 1000 nM | 10 to 100 nM
CC1(c2ccc(Nc3nc(N4CCC[C@@H](n5ccc6cc(C7CC7)ccc6c5=O)C4)cnc3C(N)=O)cc2)CCN(C2CCCC2)CC1 [Example A-141, 3-{[4-(1-cyclopentyl-4-methylpiperidin-4-yl)phenyl]amino}-5-[(3R)-3-(6-cyclopropyl-1-oxo-1,2-dihydroisoquinolin-2-yl)piperidin-1-yl]pyrazine-2-carboxamide] | 10 to 100 nM | 10 to 100 nM | 100 to 1000 nM | ≤ 10 nM
C[C@@H]1[C@H](NC(=O)c2ccc(C3CC3)cc2F)CCCN1c1cnc(C(N)=O)c(Nc2ccc(S(=O)(=O)N3CCN(C)CC3)cc2)n1 [Example A-156, 5-[(2R,3R)-3-(4-cyclopropyl-2-fluorobenzamido)-2-methylpiperidin-1-yl]-3-({4-[(4-methylpiperazin-1-yl)sulfonyl]phenyl}amino)pyr-azine-2-carboxamide] | 100 to 1000 nM | 100 to 1000 nM | 1000 to 10000 nM | 100 to 1000 nM
C[C@@H]1[C@H](NC(=O)c2ccc(C3CC3)cc2)CCCN1c1cnc(C(N)=O)c(Nc2ccc(N3CCN(C)CC3)cc2)n1 [Example A-170, 5-[(2R,3R)-3-(4-cyclopropylbenzamido)-2-methylpiperidin-1-yl]-3-{[4-(4-methylpiperazin-1-yl)phenyl]amino}pyrazine-2-carboxamide] | 100 to 1000 nM | 10 to 100 nM | 100 to 1000 nM | 10 to 100 nM

The next lines start with the values.

IC50 (ITK) | IC50 (SRC) | IC50 (EGFR) | IC50 (TEC) | SMILES
100 to 1000 nM | 10 to 100 nM | 100 to 1000 nM | 10 to 100 nM | CN1CCN(c2ccc(Nc3nc(N4CCC[C@@H](n5ccc6cc(C7CC7)cc(F)c6c5=O)C4)cnc3C(N)=O)cc2)CC1 [Example A-133, 5-[(3R)-3-(6-cyclo-propyl-8-fluoro-1-oxo-1,2-dihydroisoquinolin-2-yl)piperidin-1-yl]-3-{[4-(4-methylpiperazin-1-yl)phenyl]amino}pyrazine-2-carboxamide]
100 to 1000 nM | 10 to 100 nM | 100 to 1000 nM | 10 to 100 nM | C[C@@H]1[C@H](n2ccc3cc(C4CC4)ccc3c2=O)CCCN1c1cnc(C(N)=O)c(Nc2ccc(N3CCN(C)CC3)cc2)n1 [Example A-140, 5-[(2R,3R)-3-(6-cyclopropyl-1-oxo-1,2-dihydro-isoquinolin-2-yl)-2-methylpiperidin-1-yl]-3-{[4-(4-methylpiperazin-1-yl)phenyl]amino}pyrazine-2-carboxamide]
10 to 100 nM | 10 to 100 nM | 100 to 1000 nM | 10 to 100 nM | CC(C)N1CCN(c2ccc(Nc3nc(N4CCC[C@@H](NC(=O)c5ccc(C6CC6)cc5F)[C@H]4C)cnc3C(N)=O)cc2)CC1 [Example A-149, 5-[(2R,3R)-3-(4-cyclopropyl-2-fluorobenzamido)-2-methylpiperidin-1-yl]-3-({4-[4-(propan-2-yl)piperazin-1-yl]phenyl}amino)pyrazine-2-carboxamide]
> 10000 nM | 1000 to 10000 nM | > 10000 nM | 10 to 100 nM | Cn1cc(Nc2nc(N3CCC[C@@H](n4ccc5cc(C6CC6)ccc5c4=O)C3)cnc2C(N)=O)cn1 [Example A-167, 5-[(3R)-3-(6-cyclopropyl-1-oxo-1,2-dihydroisoquinolin-2-yl)piperidin-1-yl]-3-[(1-methyl-1H-pyrazol-4-yl)amino]pyrazine-2-carboxamide]
1000 to 10000 nM | 100 to 1000 nM | 1000 to 10000 nM | 10 to 100 nM | C[C@@H]1[C@H](NC(=O)c2ccc(C3CC3)cc2)CCCN1c1cnc(C(N)=O)c(Nc2cnn(C)c2)n1 [Example A-169, 5-[(2R,3R)-3-(4-cyclopropylbenzamido)-2-methylpiperidin-1-yl]-3-[(1-methyl-1H-pyrazol-4-yl)amino]pyrazine-2-carboxamide]
